Columns and labels:
[1] = biological target: T1, 5-HT1A serotonin receptor (Rattus norvegicus, UniProt P19327); experiment: displacement of [^3 H] 8-OHDPAT (dipropylaminotetralin) from the 5-HT1A serotonin receptor; conditions: procedure of Hall et al., read-out: 5-HT1A Binding (IC50)
T1 construct: from tissue; inferred from the cited Hall et al. 1985 procedure
T1 sequence (P19327 1-422): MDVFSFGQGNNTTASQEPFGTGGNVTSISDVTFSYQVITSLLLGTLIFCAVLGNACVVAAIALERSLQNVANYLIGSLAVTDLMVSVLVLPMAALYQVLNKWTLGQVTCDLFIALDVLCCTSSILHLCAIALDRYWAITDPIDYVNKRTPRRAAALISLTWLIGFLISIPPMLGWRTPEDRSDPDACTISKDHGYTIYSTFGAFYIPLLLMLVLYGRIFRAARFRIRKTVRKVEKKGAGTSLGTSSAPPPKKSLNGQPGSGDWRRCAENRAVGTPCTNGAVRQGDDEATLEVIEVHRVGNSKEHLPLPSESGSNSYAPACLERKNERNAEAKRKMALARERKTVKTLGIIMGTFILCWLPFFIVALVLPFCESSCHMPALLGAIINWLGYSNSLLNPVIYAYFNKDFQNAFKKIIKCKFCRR
Method: The compounds of this invention are prepared by conventional methods. For example, the appropriately substituted "acid" is transformed in the presence of a coupling agent like N,N-bis(2-oxo-3-oxazolidinyl)phosphoramidic chloride to yield the desired products ( 1 ). [drawing 3] High affinity for the serotonin 5-HT1A receptor was established by testing the claimed compound's ability to displace [^3 H] 8-OHDPAT (dipropylaminotetralin) from the 5-HT1A serotonin receptor following the procedure of Hall et al., J. Neurochem. 44, 1685 (1985). […] The anxiolytic activity of buspirone is believed to be, at least partially, due to its 5-HT1A receptor affinity (Vander Maclen et al., Eur. J. Pharmacol. 1986, 129 (1-2) […]).

[2] = biological target: T1, 5-HT1A serotonin receptor; conditions: buspirone, standard for anxiolytic activity; cited from earlier work

Work on C#CCNC(=O)C(CCN1CCN(c2ccccc2OC)CC1)c1ccccc1 (stereo not drawn) [Example 1, 4-[4-(2-Methoxy-phenyl)-piperazin-1]-2-phenyl-N-prop-2-ynyl-butyramide] yielded an IC50 [1] of 44.9 nM.
In the case of O=C1CC2(CCCC2)CC(=O)N1CCCCN1CCN(c2ncccn2)CC1 [buspirone], the “affinity for the 5-HT1A serotonin receptor subtype (in words)” value [2] is given as “potent affinity”.
Work on C#CCN(C)C(=O)C(CCN1CCN(c2ccccc2OC)CC1)c1ccccc1 (stereo not drawn) [Example 2, 4-[4-(2-Methoxy-phenyl)-piperazin-1-yl]-N-methyl-2-phenyl-N-prop-2-ynyl-butyramide] yielded an IC50 [1] of 19.4 nM.

From patent US5451584A, “N-alkynyl carboxamides as sertonergic agents” (American Home Products Corporation, priority 1994, dated 1995)
